Assay results as given in PubChem BioAssay (NCI).
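Cells were grown in 96-well plates and exposed to each compound for 48 hours at five concentrations; endpoints were interpolated linearly between bracketing concentrations, or set to the highest concentration if not reached. At the GI50, growth is halved. Definition used: TGI = concentration required for complete inhibition of growth.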

Assays:
Assay in all cases: growth of human tumour cells (NCI), 48 h
HOP-62 NSCLC = test system: HOP-62 NSCLC
OVCAR-8 ovarian = test system: OVCAR-8 ovarian
SN12C renal = test system: SN12C renal
UO-31 renal = test system: UO-31 renal
HL-60(TB) leukemia = test system: HL-60(TB) leukemia
SNB-75 CNS = test system: SNB-75 CNS
A498 renal = test system: A498 renal
U251 CNS = test system: U251 CNS
SK-MEL-28 melanoma = test system: SK-MEL-28 melanoma
CCRF-CEM leukemia = test system: CCRF-CEM leukemia
HCT-116 colon = test system: HCT-116 colon
OVCAR-4 ovarian = test system: OVCAR-4 ovarian
UACC-62 melanoma = test system: UACC-62 melanoma
HS 578T breast = test system: HS 578T breast
SW-620 colon = test system: SW-620 colon
SF-539 CNS = test system: SF-539 CNS
BT-549 breast = test system: BT-549 breast
SK-OV-3 ovarian = test system: SK-OV-3 ovarian
HCT-15 colon = test system: HCT-15 colon
K-562 leukemia = test system: K-562 leukemia
UACC-257 melanoma = test system: UACC-257 melanoma
SK-MEL-5 melanoma = test system: SK-MEL-5 melanoma
786-0 renal = test system: 786-0 renal
MALME-3M melanoma = test system: MALME-3M melanoma
KM12 colon = test system: KM12 colon
MDA-MB-435 = test system: MDA-MB-435
MOLT-4 leukemia = test system: MOLT-4 leukemia
HOP-92 NSCLC = test system: HOP-92 NSCLC
ACHN renal = test system: ACHN renal
TK-10 renal = test system: TK-10 renal
SF-295 CNS = test system: SF-295 CNS
M14 melanoma = test system: M14 melanoma
RXF 393 renal = test system: RXF 393 renal
NCI-H226 lung = test system: NCI-H226 lung
DU-145 prostate = test system: DU-145 prostate
HT29 colon = test system: HT29 colon
A549 NSCLC = test system: A549 NSCLC
SK-MEL-2 melanoma = test system: SK-MEL-2 melanoma
CAKI-1 renal = test system: CAKI-1 renal
EKVX NSCLC = test system: EKVX NSCLC
MDA-MB-231 breast = test system: MDA-MB-231 breast
OVCAR-3 ovarian = test system: OVCAR-3 ovarian
RPMI-8226 leukemia = test system: RPMI-8226 leukemia
NCI-H23 lung = test system: NCI-H23 lung
MCF7 breast = test system: MCF7 breast
SF-268 CNS = test system: SF-268 CNS
OVCAR-5 ovarian = test system: OVCAR-5 ovarian
COLO 205 colon = test system: COLO 205 colon
NCI-H522 lung = test system: NCI-H522 lung
SNB-19 CNS = test system: SNB-19 CNS
NCI/ADR-RES ovarian = test system: NCI/ADR-RES ovarian
PC-3 prostate = test system: PC-3 prostate
NCI-H460 lung = test system: NCI-H460 lung
LOX IMVI melanoma = test system: LOX IMVI melanoma
HCC-2998 colon = test system: HCC-2998 colon

## OCCCCCNCc1cc2cc3c(cc2c2cc(OCc4ccccc4)ccc12)OCO3
HOP-62 NSCLC
  GI50: 1.72 µM
  TGI: 3.23 µM
OVCAR-8 ovarian
  GI50: 1.48 µM
  TGI: 2.8 µM
SN12C renal
  GI50: 3.4 µM
  TGI: 13.4 µM
UO-31 renal
  GI50: 1.66 µM
  TGI: 3.27 µM
HL-60(TB) leukemia
  GI50: 1.52 µM
  TGI: 3.65 µM
SNB-75 CNS
  GI50: 1.72 µM
  TGI: 3.09 µM
A498 renal
  GI50: 3.57 µM
  TGI: 14.2 µM
U251 CNS
  GI50: 1.65 µM
  TGI: 3.01 µM
SK-MEL-28 melanoma
  GI50: 1.82 µM
  TGI: 3.23 µM
CCRF-CEM leukemia
  GI50: 2.52 µM
  TGI: 6.11 µM
HCT-116 colon
  GI50: 1.46 µM
  TGI: 2.81 µM
OVCAR-4 ovarian
  GI50: 1.87 µM
  TGI: 3.59 µM
UACC-62 melanoma
  GI50: 1.71 µM
  TGI: 3.08 µM
HS 578T breast
  GI50: 1.79 µM
  TGI: 3.56 µM
SW-620 colon
  GI50: 1.39 µM
  TGI: 2.69 µM
SF-539 CNS
  GI50: 1.64 µM
  TGI: 3 µM
BT-549 breast
  GI50: 1.62 µM
  TGI: 2.98 µM
SK-OV-3 ovarian
  GI50: 3.02 µM
  TGI: 7.94 µM
HCT-15 colon
  GI50: 1.59 µM
  TGI: 3.05 µM
K-562 leukemia
  GI50: 1.68 µM
  TGI: 4.11 µM
UACC-257 melanoma
  GI50: 1.63 µM
  TGI: 3.15 µM
SK-MEL-5 melanoma
  GI50: 1.48 µM
  TGI: 2.8 µM
786-0 renal
  GI50: 1.61 µM
  TGI: 2.96 µM
MALME-3M melanoma
  GI50: 1.66 µM
  TGI: 3.1 µM
KM12 colon
  GI50: 1.62 µM
  TGI: 2.97 µM
MDA-MB-435
  GI50: 1.66 µM
  TGI: 3.02 µM
MOLT-4 leukemia
  GI50: 1.41 µM
  TGI: 4.55 µM
HOP-92 NSCLC
  GI50: 1.23 µM
  TGI: 2.84 µM
ACHN renal
  GI50: 1.58 µM
  TGI: 2.93 µM
TK-10 renal
  GI50: 1.55 µM
  TGI: 2.95 µM
SF-295 CNS
  GI50: 1.59 µM
  TGI: 3 µM
M14 melanoma
  GI50: 1.94 µM
  TGI: 3.45 µM
RXF 393 renal
  GI50: 1.04 µM
  TGI: 2.2 µM
NCI-H226 lung
  GI50: 1.85 µM
  TGI: 3.41 µM
DU-145 prostate
  GI50: 1.54 µM
  TGI: 2.88 µM
HT29 colon
  GI50: 1.5 µM
  TGI: 3 µM
A549 NSCLC
  GI50: 1.55 µM
  TGI: 2.89 µM
SK-MEL-2 melanoma
  GI50: 1.74 µM
  TGI: 3.24 µM
CAKI-1 renal
  GI50: 1.77 µM
  TGI: 3.74 µM
EKVX NSCLC
  GI50: 1.75 µM
  TGI: 3.28 µM
MDA-MB-231 breast
  GI50: 1.3 µM
  TGI: 2.56 µM
OVCAR-3 ovarian
  GI50: 1.68 µM
  TGI: 3.14 µM

## O=C1c2cc3c(cc2-c2c1c1ccc(F)cc1c(=O)n2CCCNCCO)OCO3
HOP-62 NSCLC
  GI50: 0.0366 µM
  TGI: 0.496 µM
RPMI-8226 leukemia
  GI50: 0.0577 µM
  TGI: 0.571 µM
OVCAR-8 ovarian
  GI50: 0.0538 µM
  TGI: 0.356 µM
SN12C renal
  GI50: 0.108 µM
  TGI: 0.861 µM
UO-31 renal
  GI50: 0.0292 µM
  TGI: 0.148 µM
HL-60(TB) leukemia
  GI50: 0.0291 µM
  TGI: 0.198 µM
A498 renal
  GI50: 0.137 µM
  TGI: 0.491 µM
U251 CNS
  GI50: 0.0225 µM
  TGI: 0.102 µM
NCI-H23 lung
  GI50: 0.0304 µM
  TGI: 0.147 µM
MCF7 breast
  TGI: 0.166 µM
SF-268 CNS
  GI50: 0.0537 µM
  TGI: 1.16 µM
SK-MEL-28 melanoma
  GI50: 0.329 µM
  TGI: 1.77 µM
OVCAR-5 ovarian
  GI50: 0.242 µM
  TGI: 1.23 µM
CCRF-CEM leukemia
  GI50: 0.0301 µM
  TGI: 1.27 µM
COLO 205 colon
  GI50: 0.0423 µM
  TGI: 0.81 µM
HCT-116 colon
  GI50: 0.019 µM
  TGI: 0.196 µM
OVCAR-4 ovarian
  GI50: 0.194 µM
  TGI: 1.33 µM
UACC-62 melanoma
  GI50: 0.0281 µM
  TGI: 0.174 µM
HS 578T breast
  GI50: 0.381 µM
  TGI: 2.68 µM
SW-620 colon
  GI50: 0.0218 µM
  TGI: 1 µM
SF-539 CNS
  GI50: 0.0407 µM
  TGI: 0.324 µM
NCI-H522 lung
  GI50: 0.014 µM
  TGI: 0.106 µM
BT-549 breast
  GI50: 0.238 µM
  TGI: 1.34 µM
SK-OV-3 ovarian
  GI50: 0.0525 µM
  TGI: 0.566 µM
SNB-19 CNS
  GI50: 0.0431 µM
  TGI: 1.16 µM
NCI/ADR-RES ovarian
  GI50: 0.0374 µM
  TGI: 1.08 µM
HCT-15 colon
  GI50: 0.0277 µM
  TGI: 0.27 µM
K-562 leukemia
  GI50: 0.0373 µM
  TGI: 1.36 µM
UACC-257 melanoma
  GI50: 0.123 µM
  TGI: 0.853 µM
SK-MEL-5 melanoma
  GI50: 0.109 µM
  TGI: 0.232 µM
786-0 renal
  GI50: 0.0335 µM
  TGI: 0.776 µM
MALME-3M melanoma
  GI50: 0.102 µM
  TGI: 0.729 µM
KM12 colon
  GI50: 0.0646 µM
  TGI: 1.06 µM
MDA-MB-435
  GI50: 0.0674 µM
  TGI: 0.955 µM
MOLT-4 leukemia
  GI50: 0.024 µM
  TGI: 1.24 µM
HOP-92 NSCLC
  GI50: 0.198 µM
  TGI: 0.845 µM
PC-3 prostate
  GI50: 0.144 µM
  TGI: 1.47 µM
ACHN renal
  GI50: 0.0247 µM
  TGI: 0.104 µM
TK-10 renal
  GI50: 0.148 µM
  TGI: 0.487 µM
SF-295 CNS
  GI50: 0.0224 µM
  TGI: 0.114 µM
M14 melanoma
  GI50: 0.0367 µM
  TGI: 1.09 µM
RXF 393 renal
  GI50: 0.1 µM
  TGI: 0.322 µM
NCI-H226 lung
  GI50: 0.0411 µM
  TGI: 0.192 µM
DU-145 prostate
  GI50: 0.0329 µM
  TGI: 1.09 µM
HT29 colon
  GI50: 0.0279 µM
  TGI: 0.152 µM
NCI-H460 lung
  GI50: 0.0219 µM
  TGI: 0.204 µM
A549 NSCLC
  GI50: 0.0339 µM
  TGI: 0.188 µM
SK-MEL-2 melanoma
  GI50: 0.273 µM
  TGI: 0.716 µM
LOX IMVI melanoma
  GI50: 0.0139 µM
  TGI: 0.0582 µM
CAKI-1 renal
  GI50: 0.0628 µM
  TGI: 1.44 µM
EKVX NSCLC
  GI50: 0.211 µM
  TGI: 1.21 µM
MDA-MB-231 breast
  GI50: 0.255 µM
  TGI: 1.06 µM
OVCAR-3 ovarian
  GI50: 0.0751 µM
  TGI: 0.826 µM
HCC-2998 colon
  GI50: 0.0537 µM
  TGI: 0.272 µM
